Measurements from US6555531B1, “Weight promoting composition, method, and product” (Pherin Pharmaceuticals, Inc., priority 1999, dated 2003).
Values joined by “and” are separate entries in the source; they are usually repeats but may differ in a detail not shown here. Equal values may be shown once. “Also recorded” adds a separate entry of the source.

Key:
VNO cells = assay: In Vitro Study CL002: inward current in VNO cells; assay type: cell-based, human; details: for mean peak inward current: 10^−5 M
Method: In Vitro Study CL002. This study was conducted using VNO cells that had been collected from healthy male and female volunteers. […] In addition, the magnitude of the response was greater in cells from women than in cells from men.

VNO = assay: In Vivo Study CL001: electrovomerogram (EVG), autonomic parameters and EEG after VNO stimulation; set-up: species or system human; key to performance summary: EDA / performance summary: α-CA / performance summary: EVG: + indicates a moderate increase in activity; ++ indicates a substantial increase in activity; details: for EVG, difference from the response to placebo: 200 pg vapor pulse to VNO; for mean peak amplitude of the EVG (electrovomerogram) response: single intranasal dose
Method: In Vivo Study CL001. This study was conducted in healthy male and female volunteers each tested with a single dose of (17β)19-norpregna-1,3,5(10)-trien-3-ol. The mean peak amplitude of the EVG (electrovomerogram) response to intranasal administration of (17β)19-norpregna-1,3,5(10)-trien-3-ol, reported as the magnitude of the difference from the response to placebo, was […] (13.9 mV in women and 5.3 mV in men difference from the response to placebo). […] In addition, the peak amplitude of the response in women was greater than that in men. Methods: For VNO stimulation, a 10^−8 M solution of (17β)19-norpregna-1,3,5(10)-trien-3-ol vomeropherin was prepared in propylene glycol (PG). A vapor pulse (duration: 2 seconds) of the vomeropherin was obtained bubbling clean air through the solution (air flow: 3 mL/min.). This delivered an estimated quantity of 200 pg of (17β)19-norpregna-1,3,5(10)-trien-3-ol to the VNO. The control was a pulse of PG alone in vapor form. Processing and analysis of the results was done off-line. The amplitude or frequency of the different parameters was measured. The mean and standard deviation of the mean were obtain for all parameters 5 minutes after stimulation with control, and (17β)19-norpregna-1,3,5(10)-trien-3-ol. The significance of the results was studied using the paired, two-tailed student t-test, and analysis of variance.

gonadotropin secretion = assay: Study CL003: gonadotropin secretion study in healthy female volunteers; assay type: in vivo, human
Method: Study CL003 was designed to investigate possible effects of (17β)19-norpregna-1,3,5(10)-trien-3-ol on gonadotropin secretion in healthy female volunteers. Because gonadotropins typically are secreted in a pulsatile pattern with 4-6 peaks per day, (17β)19-norpregna-1,3,5(10)-trien-3-ol was administered at 10-minute intervals over a 6-hour period. This timing was provided in order to determine whether (17β)19-norpregna-1,3,5(10)-trien-3-ol affected the pattern of pulsatility and/or the magnitude of the gonadotropin release. […] To follow up on these anecdotal reports, the investigators gave the subjects a questionnaire one month after completing their participation in the study to assess this effect of (17β)19-norpregna-1,3,5(10)-trien-3-ol in a systematic fashion.

[1] = Study CL004: follow-on appetite study; assay type: in vivo, human; details: one dose every 10 minutes for 6 hours, interim findings
Method: Study CL004. Study CL004 was conducted as a follow-on to the surprising appetite results of study CL003, and was designed to provide a more focused investigation of the effects of (17β)19-norpregna-1,3,5(10)-trien-3-ol on appetite. […] Study CL004 was conducted after study CL003 had been completed.

[2] = Study CL005: food consumption and appetite study; assay type: in vivo, human; details: same dosing regimen; not after placebo; preliminary data analysis
From the text: Study CL005. Study CL005 was designed to investigate in detail the effects of (17β)19-norpregna-1,3,5(10)-trien-3-ol -on food consumption in studies CL003 and CL004. The (17β)19-norpregna-1,3,5(10)-trien-3-ol dosing regimen was the same as had been used for the previous studies. Food intake and appetite were examined in this study in great detail. Subjects kept records of their appetite, food intake, etc., over a 3-4 month period.

[3] = Study CL006: mealtime dosing in metabolic unit, appetite and food intake; assay type: in vivo, human; details: some participants, dosing with mealtimes, informal analysis of blinded data
From the text: Study CL006. Study CL006 was designed to provide an evaluation of a more clinically meaningful (17β)19-norpregna-1,3,5(10)-trien-3-ol dosing regimen, as well as to provide a more controlled environment in which to evaluate appetite and food intake effects. In this study, subjects received (17β)19-norpregna-1,3,5(10)-trien-3-ol in association with mealtimes, and they remained in a metabolic unit throughout the study.

[4] = dosed at 10-minute intervals over 6 hours

CC[C@H]1CC[C@H]2[C@@H]3CCc4cc(O)ccc4[C@H]3CC[C@]12C [(17β)19-norpregna-1,3,5(10)-trien-3-ol]
concentration of peak effect (inward current) (VNO cells; VNO cells): 10^−5 M
concentration at which inward current response was significantly different from the control response (VNO cells; VNO cells from men and women): ≥ 10^−7 M
response of VNO cells to application (VNO cells; cells from both men and women, magnitude dose dependent): development of an inward current
mean peak inward current (VNO cells; cells from men): 55 pA
mean peak inward current (VNO cells; cells from women): 96 pA
activity in the VNO (VNO; both female and male subjects): active
EDA compared with placebo (VNO; eight female subjects, 200 pg, p<0.05): increased significantly from placebo; also recorded: increased EDA
Other autonomic parameters and EMG (VNO; female subjects): remained unchanged
performance summary: EDA (VNO; female subjects): +
performance summary: EVG (VNO; female subjects): ++
performance summary: α-CA (VNO; female subjects): ++
Respiratory frequency (RF), difference from placebo (VNO; female subjects, 200 pg): +3.0 cycles/min
alpha-cortical activity (α-CA), difference from placebo (VNO; female subjects, 200 pg): +35.8 μV^2/Hz
beta-cortical activity (β-CA), difference from placebo (VNO; female subjects, 200 pg): −2.2 μV^2/Hz
body temperature (BT), difference from placebo (VNO; female subjects, 200 pg): +0.2 °C
cardiac frequency (CF), difference from placebo (VNO; female subjects, 200 pg): 0 beats/min
electromyogram (EMG), difference from placebo (VNO; female subjects, 200 pg): 0 Hz
EVG, difference from the response to placebo (VNO; female subjects): 13.9 mV and 13.8 mV
electrodermal activity (EDA), difference from placebo (VNO; female subjects, 200 pg, 5 minutes after stimulation): +109.4 μS
Alpha rhythm recorded from T4A2 compared with placebo (VNO; female subjects, p<0.05): increased significantly from placebo
beta rhythm in CA2 compared with placebo (VNO; female subjects, p<0.05): decreased beta rhythm
performance summary: EDA (VNO; male subjects): +
performance summary: EVG (VNO; male subjects): +
Body temperature compared with placebo (VNO; male subjects, p<0.05): decreased
alpha rhythm compared with placebo (VNO; male subjects, p<0.05): decreased
Other biological parameters (VNO; males): did not change significantly
EVG, difference from the response to placebo (VNO; men): 5.3 mV
EDA compared with placebo (VNO; men, p<0.05): increased EDA
EVG response compared with placebo (VNO; men, p<0.05): significantly greater than that to placebo; also recorded: significantly different from placebo
mean peak amplitude of the EVG (electrovomerogram) response (VNO; men): 30 mV
BT, difference from placebo (VNO; six male subjects): −1.2
CF, difference from placebo (VNO; six male subjects): 0
EDA, difference from placebo (VNO; six male subjects): +79.1
EMG, difference from placebo (VNO; six male subjects): 0
EVG, difference from placebo (VNO; six male subjects): +5.3
RF, difference from placebo (VNO; six male subjects): −1.7
α-CA, difference from placebo (VNO; six male subjects): −11.7
EVG response compared with placebo (VNO; women): significantly greater than that to placebo; also recorded: robust mean EVG; also recorded: large EVG
mean peak amplitude of the EVG (electrovomerogram) response (VNO; women): 50 mV
appetite (questionnaire one month after study) (gonadotropin secretion; all subjects): large increase in appetite
gonadotropin secretion (gonadotropin secretion; [4]): No consistent changes
menstrual cycle pattern or ovulation (gonadotropin secretion; [4]): no changes
appetite ([1]; all subjects, not after placebo): increase in appetite for at least one week
body weight [1]: persistent increase in body weight
appetite [2]: perceived increase in appetite for at least one week
body weight [3]: treatment-related increase
food intake [3]: treatment-related increase
